Results published in patent US8637237B2, “Methods, compositions, and systems for the identification of species-specific or developmental stage-specific insecticides” (The University of North Carolina at Greensboro, priority 2003, dated 2014).
Values belong to the molecule of their own block, whether it stands above or below them.

What was measured:
VP16dEcR/USP = molecular target: T1, VP16dEcR/USP (Drosophila melanogaster, UniProt P34021); test: VP16dEcR with USP (VP16CfUSP), reporter in CHO cells; assay type: cell-based
T1 construct: expressed in transfected cells; host or cells: CHO
Description: (§3) These experiments employed a mammalian cell culture system using Chinese hamster ovary cells (CHO) to evaluate the transcriptional function of Drosophila melanogaster EcR and USP using methods described previously (U.S. Patent Application Publication No: 2005/0049230; Henrich et al, 2003). Cells were seeded in 6-well polypropylene culture plates (Falcon) with 10^5 cells per well on the day prior to transfection. Transfection was subsequently performed using either calcium phosphate (Kitareewan et al., 1996, Mol. Biol. Cell, 7:1153-1196) or a GenePorter reagent (Gene Therapy Systems, Inc; San Diego, Calif.) following manufacturer's protocols. Each well received 1.25 μg of (EcRE)5-ΔMTV-CAT (five copies of the hsp27 EcRE inserted into an mouse mammary tumor virus (MTV) promoter upstream of the chloramphenicol acetyltransferase (CAT) gene) or (EcRE)5-ΔMTV-LUC (the same promoter attached to firefly luciferase), 1.25 μg of pCH111 (SV40 early promoter linked to the β-galactosidase gene) to normalize CAT activity, and 0.25 μg of each expression plasmid (EcR, FXR, RXR, USP) that was tested. […] Both β-galactosidase and CAT reporter activity were measured based on previously used methods (Kitareewan et al, 1996). […]
(§4) Transcriptional activity, measured as ^14C-chloramphenicol counts (for measuring CAT activity) or relative luciferase activity (RLU) was quantified for each cell lysate. […]

EcRB1/RXR = molecular target: T2, EcRB1/RXR (Drosophila melanogaster, UniProt P34021); test: EcRB1 isoform with RXR, reporter in CHO cells; assay type: cell-based
T2 construct: The plasmid encodes a version of EcRB1 that includes 878 amino acids, and deletes the F domain; expressed in transfected cells; host or cells: CHO
Description: as §3, §4

EcRB1/DmUSPF2 = molecular target: T3, EcRB1/DmUSPF2 (Drosophila melanogaster, UniProt P34021); test: Drosophila EcRB1 with Drosophila USPF2, luciferase reporter in mammalian cells (FIG. 6); assay type: cell-based; conditions: for increase of the effect of 0.1 μM murA: with 0.1 μM murA
T3 construct: The plasmid encodes a version of EcRB1 that includes 878 amino acids, and deletes the F domain; expressed in transfected cells; host or cells: CHO (mammalian cells)
T3 sequence (P34021 1-878): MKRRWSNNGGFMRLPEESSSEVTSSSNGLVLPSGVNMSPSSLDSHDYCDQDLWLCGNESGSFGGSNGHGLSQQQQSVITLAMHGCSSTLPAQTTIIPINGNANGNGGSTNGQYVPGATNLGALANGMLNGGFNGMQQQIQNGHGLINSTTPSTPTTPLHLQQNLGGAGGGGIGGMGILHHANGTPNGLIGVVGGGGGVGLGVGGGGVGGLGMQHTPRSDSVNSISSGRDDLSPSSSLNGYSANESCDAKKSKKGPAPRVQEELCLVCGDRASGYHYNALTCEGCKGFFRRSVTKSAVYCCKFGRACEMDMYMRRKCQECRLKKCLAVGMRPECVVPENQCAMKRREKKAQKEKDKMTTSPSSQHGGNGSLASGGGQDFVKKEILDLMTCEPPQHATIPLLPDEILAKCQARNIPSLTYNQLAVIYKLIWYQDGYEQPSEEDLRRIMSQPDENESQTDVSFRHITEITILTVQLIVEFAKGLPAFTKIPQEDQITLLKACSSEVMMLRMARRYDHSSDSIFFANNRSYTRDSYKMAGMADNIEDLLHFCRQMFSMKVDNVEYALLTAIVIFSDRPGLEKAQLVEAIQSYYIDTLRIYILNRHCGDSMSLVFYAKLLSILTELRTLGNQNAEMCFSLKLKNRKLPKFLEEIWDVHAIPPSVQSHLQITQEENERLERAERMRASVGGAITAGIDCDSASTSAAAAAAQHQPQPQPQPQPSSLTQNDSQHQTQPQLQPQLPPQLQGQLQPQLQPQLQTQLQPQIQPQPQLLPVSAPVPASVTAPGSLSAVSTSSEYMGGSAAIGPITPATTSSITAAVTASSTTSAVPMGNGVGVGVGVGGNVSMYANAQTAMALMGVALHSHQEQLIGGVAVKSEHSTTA
T3 sequence (P20153 104-507 partner limits assumed): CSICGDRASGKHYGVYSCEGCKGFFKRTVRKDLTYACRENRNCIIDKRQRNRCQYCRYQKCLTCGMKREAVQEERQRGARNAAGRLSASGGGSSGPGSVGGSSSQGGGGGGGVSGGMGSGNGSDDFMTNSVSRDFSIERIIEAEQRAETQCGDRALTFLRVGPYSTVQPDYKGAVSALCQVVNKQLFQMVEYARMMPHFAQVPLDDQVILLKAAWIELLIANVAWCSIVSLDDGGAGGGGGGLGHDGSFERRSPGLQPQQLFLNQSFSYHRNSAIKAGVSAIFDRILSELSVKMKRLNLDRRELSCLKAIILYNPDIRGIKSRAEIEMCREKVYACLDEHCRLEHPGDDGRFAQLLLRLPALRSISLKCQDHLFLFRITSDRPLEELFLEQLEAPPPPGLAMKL
Description: (§1) Unless noted otherwise, 100 ng of each EcR and USP plasmid was transfected into 2 ml of cell culture medium. As noted above, a reporter gene carrying five tandem copies of the hsp27 ecdysone response element (Riddihough and Pelham, 1986) is attached to a constitutive thymidine kinase promoter and a luciferase reporter gene (pEcREtk-LUC) and cotransfected into the cells along with vectors expressing EcR, USP, and a constitutively active β-galactosidase gene with lipofection, following manufacturer's protocols. The subsequent measure of luciferase activity reflects ecdysteroid-inducible transcription.
(§2) The Drosophila EcR isoform vectors (A, B1, and B2) used for these experiments have been described previously (Mouillet et al, 2001). These vectors lack the F-domain, which is also not essential for in vivo function (Cherbas et al, 2003). Additionally, three different VP16-USP vectors were utilized. Construction is of the VP16-USP vectors is described below. As in the earlier study, hsp27-EcRE mediated transcriptional activity was measured by detecting the luminescence produced by luciferase in transfected cell extracts. Luciferase activity was normalized by transfection with a plasmid that constitutively expresses the β-galactosidase gene such that enzymatic activity correlated with cellular mass.
After a 4 hour transfection period, the hormone treatment was applied by diluting stock solutions of muristerone A (murA; Alexis Corporation, San Diego, Calif.), JHI (Scitech), JHIII (Sigma, St Louis, Mo.), and/or 20E (Sigma, St Louis, Mo.) in DMSO. The cells were harvested 24 hours after treatment and the contents of the cells extracted for performing the luciferase and β-galactosidase assays.

[1] = tested on: Drosophila melangaster EcR isoforms; test: Drosophila melanogaster EcR isoforms, response to ecdysteroid agonists (FIG. 8); assay type: cell-based
Description: as §1
as §2, with “mass. […]” for “mass.”

insect = conditions: from Schneiderman and Gilbert, Science 143; cited from earlier work

T1 sequence (O76202 212-462 partner limits assumed, one chain of several): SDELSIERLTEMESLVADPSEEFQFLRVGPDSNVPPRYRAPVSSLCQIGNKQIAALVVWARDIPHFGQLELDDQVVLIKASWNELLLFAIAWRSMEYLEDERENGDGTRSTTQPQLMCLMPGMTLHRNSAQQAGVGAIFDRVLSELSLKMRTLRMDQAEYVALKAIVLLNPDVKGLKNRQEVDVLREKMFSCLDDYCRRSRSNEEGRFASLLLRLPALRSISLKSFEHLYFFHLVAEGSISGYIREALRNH

Compound: CC(C)CC[C@@H](O)[C@](C)(O)[C@H]1CC[C@@]2(O)C3=CC(=O)[C@]4(O)C[C@@H](O)[C@@H](O)C[C@]4(C)[C@H]3[C@H](O)C[C@]12C [murA, muristerone A]
MurA (inducibility) (VP16dEcR/USP; 0.1 μM murA): + ((+) designates a change in transcriptional level that exceeds 2.5-fold)
MurA (inducibility) (EcRB1/RXR; 0.1 μM murA): + ((+) designates a change in transcriptional level that exceeds 2.5-fold)
stimulation of EcRB1/USPF2 complex (EcRB1/DmUSPF2; 0.1 μM and 1.0 μM murA): stimulated
stimulation of Drosophila EcR isoforms, agonists compared [1]: much greater stimulation by murA, than either 20E or RH 2485

Compound: CC(C)=CCCC(C)=CCCC(C)=CC(=O)O [farnesoic acid]
increase of the effect of 0.1 μM murA (EcRB1/DmUSPF2): increased
JH ACTIVITY (units/g) (insect): 7.8 units/g

increase of the effect of 0.1 μM murA (EcRB1/DmUSPF2): increased
Compound: COC(=O)/C=C(\C)CC/C=C(\C)CCC=C(C)C [methyl farnesoate]

Compound: COC(=O)/C=C(\C)CC/C=C(\C)CC[C@H]1OC1(C)C [JHIII, juvenile hormone III]
MurA + JHIII (JHIII potentiation) (VP16dEcR/USP; 0.1 μM murA + 80 μM JHIII): + ((+) indicates observed potentiation that exceeds 2-fold above the levels observed with ecdysteroid alone)
MurA + JHIII (JHIII potentiation) (EcRB1/RXR; 0.1 μM murA + 80 μM JHIII): + ((+) indicates observed potentiation that exceeds 2-fold above the levels observed with ecdysteroid alone)
increase of the effect of 0.1 μM murA (EcRB1/DmUSPF2): increased
